# Source: patent US20230391868A1, “COMPOSITIONS FOR AND METHODS OF TREATING CANCER” (The George Washington University, priority 2022, published 2023)
# What was measured:
# mouse CD47 promoter = test: CD47-luciferase reporter assay in SM1 melanoma cells; assay type: cell-based; details: SM1 transfected with CD47-luciferase reporter; NextA at different concentrations (FIG. 3D)
# Experimental: The mouse CD47 or SIRPα promoters were cloned into a promoterless pGL4.20[luc2/puro] vector using Genentech's cloning services (San Francisco, CA, USA). Vectors were transfected into SM1 and B16 melanoma cells using Lipofectamine 3000 (L3000008, ThermoFisher) and transfected cells were selected using puromycin. A31A7 macrophages were transiently transfected using jetOPTIMUS DNA transfection reagent (Polyplus, NY, USA). Luminescence was measured using the Luciferase Assay System (E4550, Promega) in a SpectraMax i3× Multi-Mode Microplate Reader (Molecular Devices).
# Furthermore, to investigate whether HDAC6 controls CD47 expression at the transcriptional level, the mouse CD47 promoter was cloned into a promoterless pGL4.20[luc2/puro] vector. SM1 melanoma cells were transfected with the CD47-luciferase reporter vector and stimulated with IFNγ in the absence or presence of NextA at different concentrations and measured luminescence. Treatment with NextA repressed IFNγ-mediated upregulation of Cd47 (FIG. 3D).
# [1] = tested on: A31A7 macrophages and BMDMs; test: Macrophage cell surface marker expression by flow cytometry; assay type: cell-based, mouse
# Experimental: Bone marrow-derived macrophages were isolated from the femurs and tibias of wild-type C57/Bl6, HDAC6 knockout (C57BL/6J-Hdac6em2Lutzy/J, 029318, Jackson Laboratory), or UBC-GFP (C57BL/6-Tg(UBC-GFP)30Scha/J, 004353, Jackson Laboratory). Isolated bone marrow cells were cultured in RPMI 1640 complete medium with 10% FBS, 1% NEAA, and 1% penicillin-streptomycin in 5% CO2 at 37° C. Medium was supplemented with murine recombinant M-CSF (20 ng/mL, 576404, Biolegend) to differentiate monocytes into macrophages. Three days after bone marrow isolation, undifferentiated and floating cells were washed with PBS and replaced with fresh RPMI media. A3.1A7 cells and BMDMs were pretreated with 5 μM of HDAC6 inhibitor NextA or vehicle prior to adding polarizing cytokines.
# Macrophages were polarized to M1-like phenotype using 50 ng/mL of interferon gamma (IFNγ, 575306, Biolegend) and 100 ng/mL of bacterial lipopolysaccharide (LPS, L2880, Sigma Aldrich, St. Louis, MO) for 24 hours. To polarize macrophages towards the M2-like phenotype, macrophages were stimulated with 20 ng/mL of IL-4 (214-14, PeproTech) and 20 ng/mL of IL-13 (575904, Biolegend). THP1 monocytes were treated with 5 ng/mL of phorbol 12-myristate 13-acetate (PMA) to induce differentiation into macrophages. Once converted to macrophages, media was replaced to remove PMA prior to treatment and/or polarization. […]
compound,measurement,setting,value
"CCCCN(Cc1ccc(C(=O)NO)cc1)C(=O)Nc1ccccc1 [NextA, Nexturastat A]",IFNγ-mediated upregulation of Cd47 (luminescence),mouse CD47 promoter,repressed
same,cell surface expression of CD80 and H2,"[1]; A31A7 and BMDMs polarized to M1-like phenotypes, 5 μM (FIG. 1B)",upregulation
same,CD206 surface expression,"[1]; A31A7 cells and BMDMs, M2, 5 μM (FIG. 1D)",significantly downregulated
